# Data published in US20040224313A1, “Polymorphisms in the human cyp2b6 gene and their use in diagnostic and therapeutic applications” (priority 2000, published 2004).
# Numbering of substitutions follows the chain as printed.
# Key:
# [1] = molecular target: T1, CYP2B6 (Homo sapiens, UniProt P20813, R487C); conditions: human liver microsomes, homozygous carriers of R487C (C1459T)
# T1 sequence (P20813 1-491 R487C): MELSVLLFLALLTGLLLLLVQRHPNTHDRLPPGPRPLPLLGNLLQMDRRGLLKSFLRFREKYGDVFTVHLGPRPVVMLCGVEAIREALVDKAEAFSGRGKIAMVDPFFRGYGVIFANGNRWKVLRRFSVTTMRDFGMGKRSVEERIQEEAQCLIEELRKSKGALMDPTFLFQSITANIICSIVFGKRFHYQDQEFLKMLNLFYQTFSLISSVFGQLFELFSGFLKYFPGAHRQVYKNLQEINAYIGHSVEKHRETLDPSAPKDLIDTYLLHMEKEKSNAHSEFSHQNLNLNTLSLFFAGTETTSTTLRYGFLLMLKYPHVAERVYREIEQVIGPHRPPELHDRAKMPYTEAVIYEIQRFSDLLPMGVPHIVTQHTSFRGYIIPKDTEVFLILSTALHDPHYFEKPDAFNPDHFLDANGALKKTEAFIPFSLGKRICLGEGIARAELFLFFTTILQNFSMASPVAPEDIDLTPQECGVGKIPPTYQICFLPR
# Protocol: (§1) FIG. 4: Analysis of CYP2B6 protein expression (A) and enzymatic function (B). CYP2B6 protein was determined by immunoblotting and the S-mephenytoin N-demethylation to Nirvanol was measured in 92 liver microsome samples. The 5 nonsynonymous CYP2B6 mutations were determined in DNA from the same 92 individuals. Wt indicates the group of 30 individuals with homozygous wild-type genotype; 487 R/C and 487 C/C show the results for individuals heterozygous or homozygous for the exon 9 mutation, respectively. All other mutant genotypes are collectively shown. The average expression and activity of each group is shown as horizontal line. Statistical significance was evaluated by the t-test in comparison to the Wt group: * P<0.05; ** P<0.01.
# (§2) The functional significance of the mutations in the CYP2B6 gene (Table 2) was investigated by analyzing expression and enzymatic activity of CYP2B6 in a large human liver bank. A specific monoclonal antibody, MAB-2B6 (Gentest Corp., Woburn, Mass., USA) was used to immunoquantitate microsomal CYP2B6. S-mephenytoin N-demethylation to Nirvanol was measured as a rather CYP2B6-specific pathway. The five nonsynonymous mutations were determined in all samples.
# [2] = molecular target: T2, CYP2B6 (Homo sapiens, UniProt P20813); conditions: human liver microsomes, homozygous wild-type (Wt) group
# T2 sequence (P20813 1-491): T1 sequence (P20813 1-491 R487C) with C487R
# Protocol: as §1, §2
# [3] = tested on: CYP2B6; conditions: human liver microsomes, heterozygous carriers of R487C (C1459T)
# Protocol: as §1, §2
smiles,measurement,setting,value
CC[C@@]1(c2ccccc2)NC(=O)N(C)C1=O [S-mephenytoin],"mean enzyme activity, S-mephenytoin N-demethylation",[1],22.2±8.4 pmoles of nirvanol formed/min*mg
same,"mean enzyme activity, S-mephenytoin N-demethylation",[2],49.2±49.4 pmoles of nirvanol formed/min*mg
same,"mean enzyme activity, S-mephenytoin N-demethylation",[3],25.9±15.2 pmoles of nirvanol formed/min*mg
